molecular target: FAS (Homo sapiens, UniProt P49327); experiment: FAS Assay (Assay #1 residual NADPH detection or Assay #2 CoA detection with CPM dye); format: biochemical; conditions: FAS inhibition, measured through Assay #1 or Assay #2; one experiment or average of multiple experiments
Description: FAS activity was measured through one of the two following assays.
Inhibition of FAS activity can be measured based on the detection of residual NADPH substrate after the FAS assay is quenched. This assay is run as a 10 μL endpoint assay in 384-well format, where the reaction contains 20 μM malonyl-CoA, 2 μM acetyl-CoA, 30 μM NADPH and 40 nM FAS in 50 mM sodium phosphate, pH 7.0. The assay is run by sequentially dispensing 5 μl of a malonyl-CoA solution, then enzyme solution (containing the acetyl-CoA, and NADPH) into a black, low volume assay plate (Greiner 784076) pre-dispensed with 100 nL compound solutions in DMSO. The reaction is incubated at ambient temperature for 60 minutes, then quenched with 5 μL of a developing solution composed of 90 μM resazurin, 0.3 IU/ml diaphorase in 50 mM sodium phosphate, pH 7.0. The developed reaction is read on a Molecular Devices Analyst or Acquest (or equivalent) plate reader using a 530 nm excitation wavelength filter, a 580 nm emission filter, and 561 nm dichroic filter. The test compounds are prepared in neat DMSO at a concentration of 10 mM. For inhibition curves, compounds are diluted using a three fold serial dilution and tested at 11 concentrations (e.g. 25 μM-0.42 nM). Curves are analysed using ActivityBase and XLfit, and results are expressed as pIC50 values.
Inhibition of FAS can also be quantified based on the detection of the CoA products with a thio-reactive coumarin dye. This assay is run as a 10 μL endpoint assay in 384-well format, where the reaction contains 20 μM malonyl-CoA, 20 μM acetyl-CoA, 40 μM NADPH and 2 nM FAS in 50 mM sodium phosphate, pH 7.0, and 0.04% Tween-20. The assay is run by adding 5 μL enzyme solution to a black, low volume assay plate (Greiner 784076) pre-dispensed with 100 nl compound solutions in DMSO. After 30 minutes, 5 μL substrate is added, and the reaction incubated at ambient temperature for an additional 60 minutes. The reaction is then quenched with 10 μL of 6M guanidine-HCl containing 50 μM CPM (7-diethylamino-3-(4′-maleimidylphenyl)-4-methylcoumarin (CPM; thio-reactive dye), and incubated for 30 minutes. The plate is read on an Envision (PerkinElmer) or equivalent plate reader using a 380 nm excitation wavelength filter, and a 486 nm emission filter. Data fitting and compound preparations are done as described above.

Sequence of FAS (P49327 whole entry): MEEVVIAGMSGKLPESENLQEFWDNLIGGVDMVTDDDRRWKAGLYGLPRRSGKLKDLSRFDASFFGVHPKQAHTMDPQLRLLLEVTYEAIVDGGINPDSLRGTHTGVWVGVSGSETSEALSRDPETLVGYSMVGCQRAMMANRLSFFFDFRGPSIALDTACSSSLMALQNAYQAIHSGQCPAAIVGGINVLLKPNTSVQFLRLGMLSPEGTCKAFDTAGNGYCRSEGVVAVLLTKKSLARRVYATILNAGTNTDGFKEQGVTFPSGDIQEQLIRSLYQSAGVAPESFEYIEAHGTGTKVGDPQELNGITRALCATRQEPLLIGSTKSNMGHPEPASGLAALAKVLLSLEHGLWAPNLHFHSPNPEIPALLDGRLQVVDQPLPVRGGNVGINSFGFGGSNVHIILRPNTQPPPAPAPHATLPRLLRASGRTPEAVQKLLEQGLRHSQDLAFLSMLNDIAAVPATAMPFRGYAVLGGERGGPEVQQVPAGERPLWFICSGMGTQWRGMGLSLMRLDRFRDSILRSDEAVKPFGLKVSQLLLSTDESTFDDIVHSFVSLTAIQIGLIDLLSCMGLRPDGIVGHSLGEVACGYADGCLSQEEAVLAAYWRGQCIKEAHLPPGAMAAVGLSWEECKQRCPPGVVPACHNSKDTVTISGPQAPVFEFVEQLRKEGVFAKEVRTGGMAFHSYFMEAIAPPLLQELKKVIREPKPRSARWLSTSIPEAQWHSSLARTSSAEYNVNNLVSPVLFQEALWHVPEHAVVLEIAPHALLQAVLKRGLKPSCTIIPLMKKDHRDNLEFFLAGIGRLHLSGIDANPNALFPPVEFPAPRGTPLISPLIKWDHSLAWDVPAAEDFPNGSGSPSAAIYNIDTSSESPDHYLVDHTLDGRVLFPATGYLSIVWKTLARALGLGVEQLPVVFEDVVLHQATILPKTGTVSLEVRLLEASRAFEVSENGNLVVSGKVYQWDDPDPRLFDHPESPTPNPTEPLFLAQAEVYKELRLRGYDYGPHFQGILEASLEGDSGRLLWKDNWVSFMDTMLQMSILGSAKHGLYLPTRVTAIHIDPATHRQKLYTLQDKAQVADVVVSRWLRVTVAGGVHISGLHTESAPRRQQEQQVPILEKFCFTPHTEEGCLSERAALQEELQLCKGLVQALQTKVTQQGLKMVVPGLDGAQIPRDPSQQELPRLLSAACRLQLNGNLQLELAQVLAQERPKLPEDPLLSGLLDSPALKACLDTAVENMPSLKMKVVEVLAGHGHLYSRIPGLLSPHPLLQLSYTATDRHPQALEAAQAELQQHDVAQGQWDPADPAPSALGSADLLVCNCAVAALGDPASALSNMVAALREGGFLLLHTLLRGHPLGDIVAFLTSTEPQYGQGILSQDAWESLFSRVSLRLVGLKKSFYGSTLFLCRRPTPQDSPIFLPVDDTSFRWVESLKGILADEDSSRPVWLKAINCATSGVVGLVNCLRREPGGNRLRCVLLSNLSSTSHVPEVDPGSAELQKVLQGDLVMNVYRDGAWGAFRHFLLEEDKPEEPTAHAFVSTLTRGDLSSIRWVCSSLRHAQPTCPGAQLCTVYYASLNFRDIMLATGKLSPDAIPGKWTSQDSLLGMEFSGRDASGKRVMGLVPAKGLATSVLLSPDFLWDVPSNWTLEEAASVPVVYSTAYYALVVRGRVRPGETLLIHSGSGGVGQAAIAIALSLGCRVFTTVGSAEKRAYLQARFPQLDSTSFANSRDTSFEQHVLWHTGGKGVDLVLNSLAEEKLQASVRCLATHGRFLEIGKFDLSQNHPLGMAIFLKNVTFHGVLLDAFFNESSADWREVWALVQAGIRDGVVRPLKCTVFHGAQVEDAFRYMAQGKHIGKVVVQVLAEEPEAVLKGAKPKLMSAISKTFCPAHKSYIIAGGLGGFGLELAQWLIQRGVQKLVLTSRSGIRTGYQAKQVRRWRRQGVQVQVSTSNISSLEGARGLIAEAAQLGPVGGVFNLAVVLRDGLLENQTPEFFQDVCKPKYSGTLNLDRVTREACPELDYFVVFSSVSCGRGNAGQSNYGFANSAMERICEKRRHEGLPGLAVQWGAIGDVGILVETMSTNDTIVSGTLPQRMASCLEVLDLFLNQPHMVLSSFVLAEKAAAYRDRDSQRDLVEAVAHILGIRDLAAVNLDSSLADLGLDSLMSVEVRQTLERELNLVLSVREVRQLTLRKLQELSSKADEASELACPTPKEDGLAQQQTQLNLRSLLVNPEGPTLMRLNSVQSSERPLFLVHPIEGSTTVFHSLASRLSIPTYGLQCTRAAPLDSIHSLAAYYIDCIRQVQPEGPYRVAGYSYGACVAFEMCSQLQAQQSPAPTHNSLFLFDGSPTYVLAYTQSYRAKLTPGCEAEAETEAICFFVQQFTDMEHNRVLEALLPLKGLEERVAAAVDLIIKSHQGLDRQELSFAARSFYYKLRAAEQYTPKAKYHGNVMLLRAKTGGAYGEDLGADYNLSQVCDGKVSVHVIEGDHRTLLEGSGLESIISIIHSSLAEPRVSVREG

Row | SMILES | IC50 [nM]
1 | COc1ccc(-c2ccc(-c3nnnn3C[C@@H]3CCN(C(=O)C4CC4)C3)cc2)c(Cl)c1 [Example 5, 5-[2′-chloro-4′-(methyloxy)-4-biphenylyl]-1-{[(3R)-1-(cyclopropylcarbonyl)-3-pyrrolidinyl]methyl}-1H-tetrazole] | 752
2 | Cc1nnc(-c2ccc(-c3ccc(Cl)cc3Cl)cc2)n1C[C@@H]1CCN(C(=O)C2CC2)C1 [Example 15, 4-{[(3S)-1-(cyclopropylcarbonyl)-3-pyrrolidinyl]methyl}-3-(2′,4′-dichloro-4-biphenylyl)-5-methyl-4H-1,2,4-triazole] | 596
3 | Cc1nc(-c2ccc(-c3ccc(F)cc3)cc2)n(CC2CCN(C(=O)C3CC3)C2)c1C (stereo not drawn) [Example 41, 1-{[1-(cyclopropylcarbonyl)-3-pyrrolidinyl]methyl}-2-(4′-fluoro-4-biphenylyl)-4,5-dimethyl-1H-imidazole] | 1520
4 | Cc1cnc(-c2ccc(-c3ccc(Cl)cc3Cl)cc2)n1CC1CCN(C(=O)C2CC2)C1 (stereo not drawn) [Example 54, 1-{[1-(cyclopropylcarbonyl)-3-pyrrolidinyl]methyl}-2-(2′,4′-dichloro-4-biphenylyl)-5-methyl-1H-imidazole] | 602
5 | Cn1ccc2cc(-c3ccc(-c4nncn4C[C@@H]4CCN(C(=O)C5CC5)C4)cc3)cnc21 [Example 73, 5-[4-(4-{[(3S)-1-(cyclopropylcarbonyl)-3-pyrrolidinyl]methyl}-4H-1,2,4-triazol-3-yl)phenyl]-1-methyl-1H-pyrrolo[2,3-b]pyridine] | 251
6 | O=C(C1CC1)N1CC(Cn2cnnc2-c2ccc(-c3ccc4ncccc4c3)cc2F)C1 [Example 96, 6-[4-(4-{[1-(cyclopropylcarbonyl)-3-azetidinyl]methyl}-4H-1,2,4-triazol-3-yl)-3-fluorophenyl]quinoline] | 631

Stronger by IC50, values ahead:

Row | IC50 [nM] | SMILES
7 | 40 | O=C(C1CC1)N1CC[C@@H](Cn2nncc2-c2ccc(-c3ccc4[nH]ncc4c3)cc2)C1 [Example 11, 5-[4-(1-{[(3R)-1-(cyclopropylcarbonyl)-3-pyrrolidinyl]methyl}-1H-1,2,3-triazol-5-yl)phenyl]-1H-indazole]
8 | 190 | O=C(C1CC1)N1CC[C@@H](Cn2ccnc2-c2ccc(-c3ccccc3)cc2)C1 [Example 26, 2-(4-biphenylyl)-1-{[(3S)-1-(cyclopropylcarbonyl)-3-pyrrolidinyl]methyl}-1H-imidazole]
9 | 23 | O=C(C1CC1)N1CC[C@@H](Cn2ccnc2-c2ccc(-c3ccc4occc4c3)cc2)C1 [Example 34, 2-[4-(1-benzofuran-5-yl)phenyl]-1-{[(3S)-1-(cyclopropylcarbonyl)-3-pyrrolidinyl]methyl}-1H-imidazole]
10 | 13 | O=C(C1CC1)N1CC[C@@H](Cn2cnnc2-c2ccc(-c3cccc4[nH]ncc34)cc2)C1 [Example 67, 4-[4-(4-{[(3S)-1-(cyclopropylcarbonyl)-3-pyrrolidinyl]methyl}-4H-1,2,4-triazol-3-yl)phenyl]-1H-indazole]
11 | 63 | O=C(C1CC1)N1CC[C@@H](Cn2cnnc2-c2ccc(-c3cccc(-c4cc[nH]n4)c3)cc2F)C1 [Example 87, 4-{[(3S)-1-(cyclopropylcarbonyl)-3-pyrrolidinyl]methyl}-3-[3-fluoro-3′-(1H-pyrazol-5-yl)-4-biphenylyl]-4H-1,2,4-triazole]
12 | 200 | COc1cc(-c2ccc(-c3nncn3C[C@@H]3CCN(C(=O)C4CC4)C3)c(F)c2)ccc1C [Example 98, 4-{[(3S)-1-(cyclopropylcarbonyl)-3-pyrrolidinyl]methyl}-3-[3-fluoro-4′-methyl-3′-(methyloxy)-4-biphenylyl]-4H-1,2,4-triazole]

Source: US20130196971A1, “FATTY ACID SYNTHASE INHIBITORS” (priority 2010, published 2013)
